Patent US20220411419A1, “SMALL MOLECULE MODULATORS OF MHC-I” (RetroVirox, Inc., priority 2018, published 2022)

How the values were obtained:
[1] = tested on: downmodulation of MHC-I molecules expressed on the surface of HIV infected SupT1 cells; test: cells; conditions: for EC50: Human immunodeficiency virus 1, SUP-T1, read-out: EC50 for inhibition of MHC-I downmodulation utilizing the R1 parameter; for activity at 100 µM: Human immunodeficiency virus 1, SUP-T1, read-out: R1 @ 100 μM (R1 value for MHC-I downmodulation as % of the vehicle control)
in vitro = conditions: human, uninfected SupT1 cells

`Cc1cnc(NC(=O)COc2cccc3c2OC(C)(C)C3)cn1` [Compound 9, 2-((2,2-Dimethyl-2,3-dihydrobenzofuran-7-yl)oxy)-N-(5-methylpyrazin-2-yl)acetamide] gave an EC50 [1] of 0.5 µM and a CC50 at 48 h (in vitro) of over 125 µM.

Work on `COc1ccccc1OCC(=O)Nc1nc2c(C)cccc2s1` [Compound 189, 2-(2-Methoxyphenoxy)-N-(4-methylbenzo[d]thiazol-2-yl)acetamide] yielded an EC50 [1] of over 25 µM, an activity at 100 µM [1] of 39% and a CC50 (in vitro) of over 100 µM. For the same compound, the CC50 at 48 h (in vitro) was over 100 µM.

For `Cc1nc(NC(=O)COc2cccc3c2OC(C)(C)C3)ccc1Br` [Compound 72, N-(5-Bromo-6-methylpyridin-2-yl)-2-((2,2-dimethyl-2,3-dihydrobenzofuran-7-yl)oxy)acetamide], the EC50 [1] was 1.4 µM and the CC50 at 48 h (in vitro) was over 100 µM.

Compound `CC1(C)Cc2cccc(OCC(=O)Nc3nc(C(=O)NCc4ccco4)cs3)c2O1` [Compound 154, 2-(2-((2,2-Dimethyl-2,3-dihydrobenzofuran-7-yl)oxy)acetamido)-N-(furan-2-ylmethyl)thiazole-4-carboxamide] has an EC50 [1] of over 25 µM, an activity at 100 µM [1] of 44% and a CC50 (in vitro) of over 100 µM. For the same compound, the CC50 at 48 h (in vitro) was over 100 µM.

In the case of `COc1cccc(C)c1OCC(=O)N(C)c1nc2c(s1)CCCC2` [Compound 116, 2-(2-Methoxy-6-methylphenoxy)-N-methyl-N-(4,5,6,7-tetrahydrobenzo[d]thiazol-2-yl)acetamide], the EC50 [1] is reported as 0.2 µM and the CC50 at 48 h (in vitro) is reported as over 125 µM.

For `Cc1cc2c(OCC(=O)N(C)c3nc4c(s3)CCCC4)cccc2[nH]1` [Compound 123, N-Methyl-2-((2-methyl-1H-indol-4-yl)oxy)-N-(4,5,6,7-tetrahydrobenzo[d]thiazol-2-yl)acetamide], the EC50 [1] was 0.013 µM and the CC50 at 48 h (in vitro) was over 125 µM.

`Cc1csc(N(Cc2ccccn2)C(=O)COc2cccc3c2OC(C)(C)C3)n1` [Compound 33, 2-((2,2-Dimethyl-2,3-dihydrobenzofuran-7-yl)oxy)-N-(4-methylthiazol-2-yl)-N-(pyridin-2-ylmethyl)acetamide] showed an EC50 [1] of 0.18 µM and a CC50 at 48 h (in vitro) of over 100 µM.

Compound `CC1(C)Cc2cccc(OCC(=O)Nc3cncc4ccccc34)c2O1` [Compound 10, 2-((2,2-Dimethyl-2,3-dihydrobenzofuran-7-yl)oxy)-N-(isoquinolin-4-yl) acetamide] has an EC50 [1] of over 25 µM, an activity at 100 µM [1] of 46% and a CC50 (in vitro) of over 100 µM. It also gave a CC50 at 48 h (in vitro) of over 100 µM.

Compound `C=Cc1ccc(NC(=O)COc2cccc3c2OC(C)(C)C3)nn1` [Compound 84, 2-((2,2-Dimethyl-2,3-dihydrobenzofuran-7-yl)oxy)-N-(6-vinylpyridazin-3-yl)acetamide] has an EC50 [1] of 0.89 µM and a CC50 at 48 h (in vitro) of over 100 µM.

With `Cc1ccc(N(C(=O)COc2cccc3c2OC(C)(C)C3)c2ccccc2)nn1` [Compound 89, 2-((2,2-Dimethyl-2,3-dihydrobenzofuran-7-yl)oxy)-N-(6-methylpyridazin-3-yl)-N-phenylacetamide] the EC50 [1] was 0.38 µM and the CC50 at 48 h (in vitro) was over 100 µM.

Compound `CC1(C)Cc2cccc(OCC(=O)N(Cc3ncccn3)c3nc4c(s3)CCCC4)c2O1` [Compound 44, 2-((2,2-Dimethyl-2,3-dihydrobenzofuran-7-yl)oxy)-N-(pyrimidin-2-ylmethyl)-N-(4,5,6,7-tetrahydrobenzo[d]thiazol-2-yl)acetamide] has an EC50 [1] of 0.033 µM and a CC50 at 48 h (in vitro) of over 125 µM.

In the case of `Cc1cccc(OCC(=O)N(C)c2nc3c(s2)CCCC3)c1Br` [Compound 117, 2-(2-Bromo-3-methylphenoxy)-N-methyl-N-(4,5,6,7-tetrahydrobenzo[d]thiazol-2-yl)acetamide], the EC50 [1] is reported as 0.95 µM and the CC50 at 48 h (in vitro) is reported as over 125 µM.

For `COc1ccccc1CCC(=O)N(C)c1nc2c(s1)CCCC2` [Compound 110, 3-(2-Methoxyphenyl)-N-methyl-N-(4,5,6,7-tetrahydrobenzo[d]thiazol-2-yl) propanamide], the EC50 [1] was 4.1 µM and the CC50 at 48 h (in vitro) was over 125 µM.

`CC1(C)Cc2cccc(OCC(=O)Nc3nc4ccc(OC(F)(F)F)cc4s3)c2O1` [Compound 149, 2-((2,2-Dimethyl-2,3-dihydrobenzofuran-7-yl)oxy)-N-(6-(trifluoromethoxy)benzo[d]thiazol-2-yl)acetamide] showed an EC50 [1] of over 25 µM, an activity at 100 µM [1] of 27% and a CC50 (in vitro) of over 100 µM. The CC50 at 48 h (in vitro) was over 100 µM.

`C=Cc1ccc(NC(=O)COc2cccc3c2OC(C)(C)C3)nc1C` [Compound 74, 2-((2,2-Dimethyl-2,3-dihydrobenzofuran-7-yl)oxy)-N-(6-methyl-5-vinylpyridin-2-yl)acetamide] gave an EC50 [1] of 1.3 µM and a CC50 at 48 h (in vitro) of over 125 µM.

Compound `Cc1csc(N(C(=O)COc2cccc3c2OC(C)(C)C3)c2cccnc2)n1` [Compound 65, 2-((2,2-Dimethyl-2,3-dihydrobenzofuran-7-yl)oxy)-N-(4-methylthiazol-2-yl)-N-(pyridin-3-yl)acetamide] has an EC50 [1] of 0.88 µM and a CC50 at 48 h (in vitro) of over 125 µM.

Compound `CC1(C)Cc2cccc(OCC(=O)Nc3nc4cc(F)ccc4s3)c2O1` [Compound 148, 2-((2,2-Dimethyl-2,3-dihydrobenzofuran-7-yl)oxy)-N-(5-fluorobenzo[d]thiazol-2-yl)acetamide] has an EC50 [1] of 2 µM and a CC50 at 48 h (in vitro) of over 100 µM.

In the case of `COc1ccccc1OCC(=O)Nc1nc(C)c(C)s1` [Compound 186, N-(4,5-Dimethylthiazol-2-yl)-2-(2-methoxyphenoxy)acetamide], the EC50 [1] is reported as at least 25 µM, the activity at 100 µM [1] is reported as 18% and the CC50 (in vitro) is reported as over 100 µM. It also gave a CC50 at 48 h (in vitro) of over 100 µM.

With `Cc1csc(NC(=O)COc2ccccc2OC(C)C)n1` [Compound 140, 2-(2-isopropoxyphenoxy)-N-(4-methylthiazol-2-yl)acetamide] the EC50 [1] was 14 µM and the CC50 at 48 h (in vitro) was over 125 µM.

For `C=CCN(C(=O)COc1cccc2c1OC(C)(C)C2)c1nc(C)cs1` [Compound 63, N-Allyl-2-((2,2-dimethyl-2,3-dihydrobenzofuran-7-yl)oxy)-N-(4-methylthiazol-2-yl)acetamide], the EC50 [1] was 0.19 µM and the CC50 at 48 h (in vitro) was over 100 µM.

`COc1cc(C)ccc1OCC(=O)N(C)c1nc2c(s1)CCCC2` [Compound 115, 2-(2-Methoxy-4-methylphenoxy)-N-methyl-N-(4,5,6,7-tetrahydrobenzo[d]thiazol-2-yl)acetamide] gave an EC50 [1] of 1.8 µM and a CC50 at 48 h (in vitro) of over 125 µM.

With `Cc1cnc(NC(=O)COc2cccc3c2OC(C)(C)C3)s1` [Compound 182, 2-((2,2-Dimethyl-2,3-dihydrobenzofuran-7-yl)oxy)-N-(5-methylthiazol-2-yl) acetamide] the EC50 [1] was 0.37 µM and the CC50 at 48 h (in vitro) was 69 µM.

`CC1(C)Cc2cccc(OCC(=O)N(Cc3ccncc3)c3nc4c(s3)CCCC4)c2O1` [Compound 52, 2-((2,2-Dimethyl-2,3-dihydrobenzofuran-7-yl)oxy)-N-(pyridin-4-ylmethyl)-N-(4,5,6,7-tetrahydrobenzo[d]thiazol-2-yl)acetamide] showed an EC50 [1] of 0.032 µM and a CC50 at 48 h (in vitro) of 1 µM.

For `COc1ccccc1OCC(=O)Nc1nc(C)cs1` [Compound 190, 2-(2-Methoxyphenoxy)-N-(4-methylthiazol-2-yl)acetamide], the EC50 [1] was over 25 µM, the activity at 100 µM [1] was 34% and the CC50 (in vitro) was over 100 µM. It also gave a CC50 at 48 h (in vitro) of over 100 µM.

`COc1ccc(NC(=O)COc2cccc3c2OC(C)(C)C3)nn1` [Compound 26, 2-((2,2-Dimethyl-2,3-dihydrobenzofuran-7-yl)oxy)-N-(6-methoxypyridazin-3-yl)acetamide] showed an EC50 [1] of over 25 µM, an activity at 100 µM [1] of 53% and a CC50 (in vitro) of over 100 µM. It also gave a CC50 at 48 h (in vitro) of over 100 µM.

With `CC1(C)Cc2cccc(CCC(=O)Nc3nc4c(s3)CCCC4)c2O1` [Compound 105, 3-(2,2-Dimethyl-2,3-dihydrobenzofuran-7-yl)-N-(4,5,6,7-tetrahydrobenzo[d]thiazol-2-yl)propanamide] the EC50 [1] was 0.39 µM and the CC50 at 48 h (in vitro) was over 125 µM.

`C=C(C)c1ccc(NC(=O)COc2cccc3c2OC(C)(C)C3)nc1` [Compound 69, 2-((2,2-Dimethyl-2,3-dihydrobenzofuran-7-yl)oxy)-N-(5-(prop-1-en-2-yl)pyridin-2-yl)acetamide] showed an EC50 [1] of 5 µM and a CC50 at 48 h (in vitro) of over 125 µM.

In the case of `CC1(C)Cc2cccc(OCC(=O)Nc3nc4c(F)cccc4s3)c2O1` [Compound 147, 2-((2,2-Dimethyl-2,3-dihydrobenzofuran-7-yl)oxy)-N-(4-fluorobenzo[d]thiazol-2-yl)acetamide], the EC50 [1] is reported as 0.09 µM and the CC50 at 48 h (in vitro) is reported as over 90 µM.

Work on `CCc1ccc(N(C)C(=O)COc2cccc3c2OC(C)(C)C3)nc1` [Compound 80, 2-((2,2-Dimethyl-2,3-dihydrobenzofuran-7-yl)oxy)-N-(5-ethylpyridin-2-yl)-N-methylacetamide] yielded an EC50 [1] of 4.6 µM and a CC50 at 48 h (in vitro) of over 125 µM.

Work on `Cc1ccc(N(C(=O)COc2cccc3c2OC(C)(C)C3)c2nc(C)cs2)cc1` [Compound 64, 2-((2,2-Dimethyl-2,3-dihydrobenzofuran-7-yl)oxy)-N-(4-methylthiazol-2-yl)-N-(p-tolyl)acetamide] yielded an EC50 [1] of 0.57 µM and a CC50 at 48 h (in vitro) of over 100 µM.

`CN(C(=O)COc1cccc2c1OC(C)(C)C2)c1nc2ccccc2s1` [Compound 144, N-(benzo[d]thiazol-2-yl)-2-((2,2-dimethyl-2,3-dihydrobenzofuran-7-yl)oxy)-N-methylacetamide] gave an EC50 [1] of 29 µM and a CC50 at 48 h (in vitro) of over 90 µM.

For `COc1ccc(C)cc1OCC(=O)N(C)c1nc2c(s1)CCCC2` [Compound 122, 2-(2-Methoxy-5-methylphenoxy)-N-methyl-N-(4,5,6,7-tetrahydrobenzo[d]thiazol-2-yl)acetamide], the EC50 [1] was 5 µM and the CC50 at 48 h (in vitro) was over 125 µM.

In the case of `Cc1cnc(NC(=O)COc2cccc3c2OC(C)(C)C3)cc1C` [Compound 77, 2-((2,2-Dimethyl-2,3-dihydrobenzofuran-7-yl)oxy)-N-(4,5-dimethylpyridin-2-yl)acetamide], the EC50 [1] is reported as over 25 µM, the activity at 100 µM [1] is reported as 21% and the CC50 (in vitro) is reported as over 125 µM. The CC50 at 48 h (in vitro) was over 125 µM.

In the case of `Cc1nc(N(Cc2ccccc2)C(=O)COc2cccc3c2OC(C)(C)C3)sc1C` [Compound 31, N-Benzyl-2-((2,2-dimethyl-2,3-dihydrobenzofuran-7-yl)oxy)-N-(4,5-dimethylthiazol-2-yl)acetamide], the EC50 [1] is reported as 0.21 µM and the CC50 at 48 h (in vitro) is reported as over 100 µM.

With `O=C(COc1cccc2c1OCCO2)Nc1nc2ccccc2s1` [Compound 176, N-(Benzo[d]thiazol-2-yl)-2-((2,3-dihydrobenzo[b][1,4]dioxin-5-yl)oxy) acetamide] the EC50 [1] was 8.9 µM and the CC50 at 48 h (in vitro) was over 100 µM.
